pIC50: −log10 of the molar value.
Tested on: BaF3 V617F cells; UKE-1
Test: Proliferation Assay (Cell Titer-Glo; Example 7)
Format: cell-based
Details: proliferation 72 hours, inhibit JAK2 activity, cell line (BaF3 V617F or UKE-1) not stated
In short: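 BaF3 V617F cells (RPMI, 10% FBS) and UKE-1 cells (Iscove's DMEM, 10% FBS, 10% equine serum, 1 uM hydrocortisone) were exposed to 3-fold serially diluted compound in duplicate for 72 hours at 37 °C. Viable cell number quantified by Cell Titer-Glo luminescence; IC50 reported.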

pIC50 | Compound
5.36 | CCNS(=O)(=O)NCc1cccc(Nc2nc(Nc3ccc(N4CCN(C)CC4)c(C)c3)ncc2F)c1 [II-139, N4-[3-((Ethylamino)sulfonylamino)methylphenyl]-5-fluoro-N2-[3-methyl-4-(4-methyl-1-piperazinyl)phenyl]-2,4-pyrimidinediamine]
6.54 | CCNS(=O)(=O)NCc1ccc(Nc2nc(Nc3cc(Cl)c(OC)c(OC)c3)ncc2Cl)cc1 [II-113, 5-Chloro-N2-(3-chloro-4,5-dimethoxyphenyl)-N4-[(4-(ethylamino)sulfonylamino)methylphenyl]-2,4-pyrimidinediamine]
5.84 | Cc1cc(Nc2ncc(C)c(Nc3ccc(CNS(=O)(=O)C4CC4)cc3)n2)ccc1N1CCN(C)CC1 [II-202, 5-Methyl-N4-[4-(N-cyclopropylsulfonylamino)methylphenyl]-N2-[3-methyl-4-(N-methylpiperizin-4-yl)phenyl]-2,4-pyrimidinediamine]
6.25 | COc1cc(Nc2ncc(Cl)c(Nc3ccc(CNS(=O)(=O)N(C)C)cc3)n2)cc(Cl)c1OC [II-92, 5-Chloro-N2-(3-chloro-4,5-dimethoxyphenyl)-N4-[(4-(dimethylamino)sulfonylamino)methylphenyl]-2,4-pyrimidinediamine]
6.08 | CCc1cnc(Nc2ccc(C3CCN(C)CC3)cc2)nc1Nc1ccc(CNS(=O)(=O)C2CC2)cc1 [II-88, N4-[4-(N-Cyclopropylsulfonylamino)methylphenyl]-5-ethyl-N2-[4-(1-methyl-4-piperidinyl)pheny]-2,4-pyrimidinediamine]
7.02 | Cc1cnc(Nc2cc(C)c(OC(C)C)c(C)c2)nc1Nc1ccc(CNS(=O)(=O)NC2CC2)cc1 [II-164, N4-[4-((N-Cyclopropylamino)sulfonylamino)methylphenyl]-N2-[3,5-dimethyl-4-(1-methyl)ethoxyphenyl]-5-methyl-2,4-pyrimidinediamine]
6.49 | Cc1cnc(Nc2ccc(OCCN3CC(C)OC(C)C3)cc2)nc1Nc1ccc(CCNS(=O)(=O)C2CC2)cc1 (stereo not shown) [II-65]
6.19 | CN1CCN(c2ccc(Nc3ncc(Cl)c(Nc4ccc(CCNS(=O)(=O)C5CC5)cc4)n3)c(F)c2)CC1 [II-56, 5-Chloro-N4[4-(N-cyclopropylsulfonylamino)ethylphenyl]-N2-[4-(4-methylpiperazino)-2-fluorophenyl]-2,4-pyrimidinediamine]
7.26 | CCOc1c(C)cc(Nc2ncc(C)c(Nc3ccc(CNS(=O)(=O)C4CC4)cc3)n2)cc1C [II-214, 5-Methyl-N4-[4-(N-cyclopropylsulfonylamino)methylphenyl]-N2-[3,5-dimethyl-4-ethoxyphenyl]-2,4-pyrimidinediamine]
6.22 | CCNS(=O)(=O)NCc1ccc(Nc2nc(Nc3cc(C)c(OC)c(Cl)c3)ncc2Cl)cc1 [II-110, 5-Chloro-N2-(3-chloro-4-methoxy-5-methylphenyl)-N4-[(4-(ethylamino)sulfonylamino)methylphenyl]-2,4-pyrimidinediamine]
6.58 | CN1CCC(c2ccc(Nc3ncc(Cl)c(Nc4ccc(CNS(=O)(=O)N(C)C)cc4)n3)cc2)CC1 [II-98, 5-Chloro-N4-[(4-(dimethylamino)sulfonylamino)methylphenyl]-N2-[4-(1-methyl-4-piperidinyl)pheny]-2,4-pyrimidinediamine]
6.16 | Cc1cc(OC(C)C)cc(C)c1Nc1ncc(Cl)c(Nc2ccc(CCNS(=O)(=O)C3CC3)cc2)n1 [II-48, 5-Chloro-N4[4-(N-cyclopropylsulfonylamino)ethylphenyl]-N2-[4-(2,6-dimethyl-isopropoxy)phenyl]-2,4-pyrimidinediamine]
6.75 | COc1cc(Nc2ncc(C)c(Nc3ccc(CNS(=O)(=O)N(C)C)cc3)n2)cc(C)c1OC [II-100, 4-[(4-(Dimethylamino)sulfonylamino)methylphenyl]-N2-(3,4-dimethoxy-5-methylphenyl)-5-methyl-2,4-pyrimidinediamine]
6.51 | COc1c(C)cc(Nc2ncc(Cl)c(Nc3ccc(CNS(=O)(=O)C4CC4)cc3C)n2)cc1C [II-150, 5-Chloro-N2-(3,5-dimethyl-4-methoxyphenyl)-N4-[2-methyl-4-(N-cyclopropylsulfonylamino)methylphenyl]-2,4-pyrimidinediamine]
5.28 | CCc1cnc(Nc2ccc(N3CCC(F)(F)CC3)cc2)nc1Nc1ccc(CNS(=O)(=O)C2CC2)cc1 [II-87, N4-[4-(N-Cyclopropylsulfonylamino)methylphenyl]-N2-[4-(4,4-difluoro-1-piperidinyl)phenyl]-5-ethyl-2,4-pyrimidinediamine]
6.37 | CCNS(=O)(=O)NCc1ccc(Nc2nc(Nc3cc(OC)c(OC)c(OC)c3)ncc2Cl)cc1 [II-112, 5-Chloro-N4-[(4-(ethylamino)sulfonylamino)methylphenyl]-N2-(3,4,5-trimethoxyphenyl)-2,4-pyrimidinediamine]
6.86 | CCCOc1c(C)cc(Nc2ncc(Cl)c(Nc3ccc(CNS(=O)(=O)NC4CC4)cc3)n2)cc1C [II-157, 5-Chloro-N4-[4-((N-cyclopropylamino)sulfonylamino)methylphenyl]-N2-(3,5-dimethyl-4-propoxyphenyl)-2,4-pyrimidinediamine]
4.42 | CCc1cnc(Nc2cc(Cl)c(OC)c(Cl)c2)nc1Nc1ccc(CNS(=O)(=O)C2CC2)cc1 [II-84, N4-[4-(N-Cyclopropylsulfonylamino)methylphenyl]-N2-(3,5-dichloro-4-methoxyphenyl)-5-ethyl-2,4-pyrimidinediamine]
6.15 | Cc1cc(CNS(=O)(=O)NC2CC2)ccc1Nc1nc(Nc2ccc(N3CCN(C)CC3)nc2)ncc1Cl [II-182, 5-Chloro-N4-[2-methyl-4-((N-cyclopropylamino)sulfonylamino)methylphenyl]-N2-[6-(4-methyl-1-piperazinyl)-3-pyridinyl]-2,4-pyrimidinediamine]
5.40 | CCNS(=O)(=O)NCc1ccc(Nc2nc(Nc3ccc(N4CCN(C)CC4)c(C)c3)ncc2Cl)c(C)c1 [II-145, 5-Chloro-N4-[2-methyl-4-(ethylaminosulfonylamino)methylphenyl]-N2-[3-methyl-4-(4-methyl-1-piperazinyl)phenyl]-2,4-pyrimidinediamine]
6.73 | COc1c(C)cc(Nc2ncc(Cl)c(Nc3ccc(CNS(=O)(=O)C4CC4)cc3)n2)cc1Cl [II-80, 5-Chloro-N2-(3-chloro-4-methoxy-5-methylphenyl]-N4-[4-(N-cyclopropylsulfonylamino)methylphenyl]-2,4-pyrimidinediamine]
5.79 | CCNS(=O)(=O)NCc1cccc(Nc2nc(Nc3ccc(N4CCN(C)CC4)c(C)c3)ncc2Cl)c1 [II-132, 5-Chloro-N4-[(3-(ethylamino)sulfonylamino)methylphenyl]-N2-[3-methyl-4-(4-methyl-1-piperazinyl)phenyl]-2,4-pyrimidinediamine]
6.60 | 5-Chloro-N4-[(4-(dimethylamino)sulfonylamino)methylphenyl]-N2-[3,4,5-trimethoxyphenyl)-2,4-pyrimidinediamine [II-95]
6.76 | CCN1CCN(c2ccc(Nc3ncc(C)c(Nc4ccc(CNS(=O)(=O)C5CC5)cc4)n3)cc2)CC1 [II-204, 5-Methyl-N4-[4-(N-cyclopropylsulfonylamino)methylphenyl]-N2-[4-(N-ethylpiperizin-4-yl)phenyl]-2,4-pyrimidinediamine]
6.26 | CCNS(=O)(=O)NCc1ccc(Nc2nc(Nc3ccc(N4CCN(C)CC4)cc3)ncc2Cl)c(C)c1 [II-144, 5-Chloro-N4-[2-methyl-4-(ethylaminosulfonylamino)methylphenyl]-N2-[4-(4-methyl-1-piperazinyl)phenyl]-2,4-pyrimidinediamine]
5.38 | Cc1cc(N2CCN(C)CC2)ccc1Nc1ncc(C)c(Nc2ccc(CCNS(=O)(=O)C3CC3)cc2)n1 [II-68]
6.84 | COc1c(C)cc(Nc2ncc(C)c(Nc3ccc4c(c3)S(=O)(=O)NCC4)n2)cc1C [VII-10, 5-Methyl-N4-[3,4-dihydro-1,1-dioxide-2H-1,2-benzothiazin-7-yl]-N2-[3,5-dimethyl-4-methoxyphenyl]-2,4-pyrimidinediamine]

Compound | pIC50
CN1CCN(c2ccncc2Nc2ncc(Cl)c(Nc3ccc(CNS(=O)(=O)C4CC4)cc3)n2)CC1 [II-216, 5-Chloro-N4-[4-(N-cyclopropylsulfonylamino)methylphenyl]-N2-[4-(N-methylpiperizin-4-yl)pyridine-3-yl]-2,4-pyrimidinediamine] | 6.61
CN1CCC(c2ccc(Nc3ncc(Cl)c(Nc4cccc(S(=O)(=O)NC(C)(C)C)c4)n3)cc2)CC1 [I-17, 5-Chloro-N4-[3-(N-tert-butylsulfonyl)phenyl]-N2-[4-(N-methylpiperidin-4-yl)phenyl]-2,4-pyrimidinediamine] | 6.00
CN1CCN(c2ccc(Nc3nccc(Nc4cccc(S(=O)(=O)NC(C)(C)C)c4)n3)cc2)CC1 [I-19, N4-[3-(N-tert-butylsulfonyl)phenyl]-N2-[4-(4-methylpiperazine)-phenyl]-2,4-pyrimidinediamine] | 6.22
CN1CCN(c2ccncc2Nc2ncc(Cl)c(Nc3ccc4c(c3)S(=O)(=O)NCC4)n2)CC1 [VII-3, 5-Chloro-N4-[3,4-dihydro-1,1-dioxide-2H-1,2-benzothiazin-7-yl]-N2-[4-(N-methylpiperizin-4-yl)pyridine-3-yl]-2,4-pyrimidinediamine] | 5.93
5-Chloro-N2-[3-methyl-4-(methyl-1-piperazinyl)phenyl]-N4-[1,2,3,4-tetrahydro-2-(ethylsulfonyl)-5-isoquinolinyl]-2,4-pyrimidinediamine [VI-2] | 5.55
5-Chloro-N4-[4-(N-cyclopropyl-N-acetylsulfonylamino)methylphenyl]-N2-[3,4-dimethyl-5-methoxyphenyl]-2,4-pyrimidinediamine [II-217] | 6.63
Cc1cnc(Nc2cncc(C)c2N2CCN(C)CC2)nc1Nc1ccc2c(c1)S(=O)(=O)NCC2 [VII-6, 5-Methyl-N4-[3,4-dihydro-1,1-dioxide-2H-1,2-benzothiazin-7-yl]-N2-[5-methyl-4-(N-methylpiperizin-4-yl)pyridine-3-yl]-2,4-pyrimidinediamine] | 5.72
